In US20240368133A1, “Compounds for the Treatment of Pain, in Particular, Neuropathic Pain, and/or Other Diseases or Disorders that are Associated with AT2R and/or AT2R Mediated Signaling” (Confo Therapeutics N.V., priority 2021, published 2024):

Experiments:
[1] = Plasma protein binding (equilibrium dialysis), dog; format: in vitro ADME; details: for fraction unbound at 4 h, 5 µM: equilibrium dialysis, read-out: PPB (%), dog (converted); for recovery at 4 h, 5 µM: plasma (freshly thawed), PPB assay recovery
Method: Prior to the start of the experiment, dialysis membranes (membrane strips, MW cut-off 12-14 kDa, HTDialysis, Cat.NoJl 101) are soaked in deionized water for 60 min, transferred and left overnight in 20% EtOH. The day of experiment, a 10 mM stock solution of the compound in DMSO is diluted with a factor 10 in DMSO. This solution is further diluted in freshly thawed human, rat, mouse or dog plasma (BioIVT) with a final concentration of 5 μM and final DMSO concentration of 0.5%.
From this solution, an aliquot of 50 μL was taken and matrix matched with an equivalent volume of PBS for the recovery plate, after which 6 volumes of STOP solution were added to the recovery plate. For these recovery plates, no incubation is done.
Equilibrium Dialysis Device (96-well, model HTD96b, HTDialysis, Cat. No. #1006) is assembled according to manufacturer's instructions. Immediately after assembly, a volume of 100 μL of plasma (spiked with compound) is placed on one side of the well and another 100 μL of blank PBS buffer are added to the other side, respectively. Each compound is tested in duplicate. Acebutolol and Nicardipine are used as low and very high binding controls, except for the mouse, Caffeine is used as low binder instead Acebutolol. If the PPB values for these controls are not in the range determined by the historical data, the assay is not validated.
The plate is incubated for 4 h at 37° C. while shaking at 230 rpm. Thereafter, an aliquot of 50 μL is taken from each side of the well and matrix matched (mix of equal volumes of spiked plasma with blank PBS buffer and samples from buffer compartment with blank plasma). Matrix matched samples are further mixed with 3 volumes of STOP solution (acetonitrile/MeOH 2/1 with diclofenac as internal standard). After brief mixing and centrifugation (at 2400 rpm for 15 min, at +4° C.), the supernatant is filtered and transferred into new 96-well plates for analysis on LC-MS/MS (systems API4000).
The percentage of plasma protein bound compound and recovery were calculated using following equations:
with: • Cplasma=peak area of the compound in the plasma/peak area of the IS in the plasma • Cbuffer=peak area of the compound in the buffer/peak area of the IS in the buffer • ‘Concentration’ is the ratio between compound and IS peak areas
The recovery is a control, which allows to be sure that the compound has not a non-specific binding to the plates or is not stable in the plasma in these conditions:
with: • PBS=(ratio of the peak area of the compound/peak area of the IS) in the PBS compartment after 4 h • Plasma=(ratio of the peak area of the compound/peak area of IS) in the plasma compartment after 4 h • Recov=Recovery=ratio of the peak are of the compound I the well recovery/peak area of the IS in the well recovery at TO […]

[2] = Metabolic stability in hepatocytes, human; format: in vitro ADME; details: pooled cryopreserved hepatocytes, read-out: Human Clint (μL/min/10^6 cells)
[3] = Thermodynamic solubility protocol 1 (PBS pH 7.4, citrate buffer pH 3.0); format: physicochemical; details: 25° C.
Method: In a 8 mL glass vial, 1-2 mg of dry matter of the test compound were mixed with the suitable buffers (phosphate-buffered saline pH 7.4 (138 mM NaCl, 2.7 mM KCl, 10 mM K-phosphate) or 100 mM citrate buffer pH 3.0) to reach a theoretical concentration of 4 mM. The solutions were allowed to further equilibrate at 25° C. on a thermostatic shaker. After 4 and 24 hours of shaking, respectively, the incubation mixtures were filtered through HTS filter plates using a vacuum manifold. The filtrates of test compounds were diluted 2-fold with acetonitrile with 4% DMSO before measuring. In parallel, using a 20 mM DMSO stock solution, compound dilutions in 50% acetonitrile/buffer were prepared to the theoretical concentrations of 0 μM (blank), 10 μM, 25 μM, 50 μM, 100 μM and 200 μM with 2% final DMSO to generate calibration curves.
Ondansetron (Sigma Aldrich USA, cat #03639) was used as a reference to control proper assay performance. 200 μl of each sample were transferred to a 96-well plate and solubility was measured in a 200-550 nm range (in steps of 5 nm). The measurements were performed using a Spectra Max Plus reader in UV-Vis mode. Acquisition and analysis of the data were performed using SoftMax Pro v.5.4 (Molecular Devices) and Excel 2010 data analysis software. Proper absorbance wavelengths for calculations were selected for each compound manually based on absorbance maximums (absolute absorbance unit values for the minimum and maximum concentration points within 0-3 OD range). Each of the final datasets was additionally visually evaluated by the operator and goodness of fit (R2) is calculated for each calibration curve.

[4] = Liver microsomal stability, dog; format: in vitro ADME; details: male, Beagle, pH 7.4, liver microsomes
Method: Mouse hepatic microsomes were isolated from pooled, perfused livers of male CD1 mice. Rat hepatic microsomes were isolated from pooled, perfused livers of male Sprague Dawley rats. Dog hepatic microsomes were isolated from pooled, perfused livers of male Beagle dogs. The batches of microsomes were tested for quality control using Testosterone, Propranolol and Caffeine as reference compounds.
A 10 mM stock solution of compound in DMSO is diluted three-fold in DMSO. This pre-diluted compound solution is then further diluted to 2 μM in a 50 mM phosphate buffer (PBS, pH 7.4) and pre-warmed at 37° C. This compound dilution is mixed F2 with microsomal/cofactor mix at 37° C. under shaking at 300 rpm. Final reaction conditions are: 100 μL incubation volume, 1 μM of test compound (in duplicate), <0.1% DMSO, 0.5 mg/mL microsomes, 0.6 U/mL Glucose-6-phosphate-dehydrogenase (G6PDH, Roche, 10127671001), 3.3 mM MgCl2 (Sigma, M2670), 3.3 mM glucose-6-phosphate (Sigma, G-7879) and 1.3 mM NADP+ (Sigma, N-0505).
After 60 min of incubation at 300 rpm and 37° C., the reaction was stopped with 3 volumes of STOP solution (acetonitrile/MeOH 2/1 with diclofenac as internal standard). For the time point zero, 3 volumes of STOP solution were added to the compound dilution before the microsome mix was added. Six time points over 60 minutes have been analyzed. The samples of all time points were centrifuged, filtered and the supernatant analyzed by LCMS/MS (systems API4000).
The instrument responses (peak areas/IS peak area) were referenced to the zero time-point samples (considered as 100%) in order to determine the percentage of compound remaining.
Testosterone (1 μM) and Propranolol and Caffeine (1 μM) were used as reference compounds, being unstable and stable compounds respectively. If the microsomal stability values for these controls are not in the range determined by the historical data, the assay is not validated. The solubility of the compound in the final test concentration in 50 mM buffer pH 7.4 is checked by microscope to indicate whether precipitation is observed or not. If a precipitate is observed, no data of microsomal stability is generated.

CC(C)Cc1cc(F)c(-c2nn[nH]n2)c(N2CCN(Cc3cccnn3)[C@@H](C)C2)c1 [Compound A-174, 3-[[(2S)-4-[3-fluoro-5-isobutyl-2-(2H-tetrazol-5-yl)phenyl]-2-methyl-piperazin-1-yl]methyl]pyridazine]
fraction unbound at 4 h, 5 µM [1]: 0.062
recovery at 4 h, 5 µM [1]: 97%
hepatocyte CLint at 1 µM [2]: < 2.9 µL/min/1e6 cells
TSOL pH 3.0 ([3]; time point 4 h): ≥400 μM
TSOL pH 7.4 ([3]; time point 4 h): >400 μM
TSOL pH 3.0 ([3]; time point 24 h): ≥400 μM
TSOL pH 7.4 ([3]; time point 24 h): >400 μM
microsomal CLint at 1 µM [4]: < 11.7 µL/min/mg

CC(C)Cc1cc(F)c(-c2nn[nH]n2)c(N2CCN(Cc3ccccn3)[C@@H](C)C2)c1 [Compound A-217, (2S)-4-[3-fluoro-5-isobutyl-2-(2H-tetrazol-5-yl)phenyl]-2-methyl-1-(2-pyridylmethyl)piperazine]
fraction unbound at 4 h, 5 µM [1]: 0.042
recovery at 4 h, 5 µM [1]: 96%
hepatocyte CLint at 1 µM [2]: 5.8 µL/min/1e6 cells
microsomal CLint at 1 µM [4]: < 11.5 µL/min/mg
